According to patent publication US20150152395A1, “CHIMERIC LUCIFERASES” (Connecticut College, priority 2012, published 2015):

Key:
Experiment in all cases: Steady-state kinetic constants, bioluminescence activity
[1] = tested on: PpyLit (chimeric luciferase, SEQ ID NO: 8) variant S284T/F465R; assay type: biochemical, Photinus pyralis / Luciola italica
Description: (§1) Reactions were initiated by injection of solutions of the substrate being maintained at saturating concentration. Kinetic constants were determined using a nonlinear least squares method of the Enzyme Kinetics Pro software (SynTex), which fits data from the Michalis-Menten equation to a rectangular hyperbola. The corresponding kcat values were obtained by dividing the Vmax values by the amount (μmol) of each luciferase in the assay mixtures.

[2] = tested on: PpyLit (chimeric luciferase, SEQ ID NO: 8) variant I351V/E354K; assay type: biochemical, Photinus pyralis / Luciola italica
Description: as §1

[3] = tested on: PpyLit (chimeric luciferase, SEQ ID NO: 8) variant I232A/I351V/E354K; assay type: biochemical, Photinus pyralis / Luciola italica
Description: as §1

[4] = tested on: PpyLit (chimeric luciferase, SEQ ID NO: 8) variant S284T; assay type: biochemical, Photinus pyralis / Luciola italica
Description: as §1

[5] = tested on: PpyLit (chimeric luciferase, SEQ ID NO: 8) variant F465R; assay type: biochemical, Photinus pyralis / Luciola italica
Description: as §1

[6] = tested on: PpyLit (chimeric luciferase, SEQ ID NO: 8) variant I232A/E354K; assay type: biochemical, Photinus pyralis / Luciola italica
Description: as §1

[7] = tested on: PpyLit (chimeric luciferase, SEQ ID NO: 8) variant S284T/I351V/E354K; assay type: biochemical, Photinus pyralis / Luciola italica
Description: as §1

[8] = tested on: Ppy RE-TSLit, chimeric luciferase of Ppy RE-TS N-domain and LitWT C-domain; assay type: biochemical, Photinus pyralis / Luciola italica
Description: as §1

[9] = tested on: PpyLit, chimeric luciferase of PpyWT residues 1-439 and LitWT residues 440-550, SEQ ID NO: 8; assay type: biochemical, Photinus pyralis / Luciola italica
Description: as §1

[10] = tested on: PpyLit (chimeric luciferase, SEQ ID NO: 8) variant I351V/E354K/F465R; assay type: biochemical, Photinus pyralis / Luciola italica
Description: as §1

[11] = tested on: Ppy GR-TSLit, chimeric luciferase of Ppy GR-TS N-domain and LitWT C-domain; assay type: biochemical, Photinus pyralis / Luciola italica
Description: as §1

[12] = biological target: T1, Photinus pyralis luciferase variant Ppy RE-TS, SEQ ID NO: 24 (Photinus pyralis, UniProt P08659, A215L/E354K/F295L/I232A/S284T/T214A); assay type: biochemical
T1 construct: N-terminal GPLGS; pGEX-6P-2 GST fusion (tag cleaved), E. coli BL21
T1 sequence (P08659 whole entry T214A/A215L/I232A/S284T/F295L/E354K, the tested form may be a part): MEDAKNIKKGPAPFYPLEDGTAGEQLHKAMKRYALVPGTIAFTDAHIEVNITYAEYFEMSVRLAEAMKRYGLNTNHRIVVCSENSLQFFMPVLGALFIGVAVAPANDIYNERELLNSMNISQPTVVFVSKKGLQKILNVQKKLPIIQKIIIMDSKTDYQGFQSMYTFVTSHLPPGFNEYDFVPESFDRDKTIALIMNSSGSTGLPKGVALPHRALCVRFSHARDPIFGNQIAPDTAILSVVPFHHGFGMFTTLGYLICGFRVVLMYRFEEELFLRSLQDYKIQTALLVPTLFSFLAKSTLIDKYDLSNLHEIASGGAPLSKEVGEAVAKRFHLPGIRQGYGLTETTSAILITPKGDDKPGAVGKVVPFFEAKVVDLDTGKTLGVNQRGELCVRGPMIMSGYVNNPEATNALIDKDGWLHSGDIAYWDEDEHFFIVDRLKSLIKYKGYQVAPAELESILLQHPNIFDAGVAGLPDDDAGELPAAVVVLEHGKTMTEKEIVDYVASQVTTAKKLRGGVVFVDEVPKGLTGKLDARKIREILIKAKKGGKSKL

[13] = biological target: T2, Photinus pyralis luciferase PpyWT variant Ppy S284T (Ser284Thr) (Photinus pyralis, UniProt P08659, S284T); assay type: biochemical
T2 construct: pGEX-6P-2 GST fusion (tag cleaved), E. coli BL21
T2 sequence (P08659 whole entry S284T, the tested form may be a part): as the sequence (P08659 whole entry T214A/A215L/I232A/S284T/F295L/E354K, the tested form may be a part) above, with A214T, L215A, A232I, L295F, K354E counted along it

[14] = biological target: T3, Photinus pyralis luciferase variant Ppy RE13, Ppy RE9 (SEQ ID NO: 20) with Ile457Val/Arg465Phe/Ala482Gly/His489Lys/Ala503Asn/Lys543Gln, SEQ ID NO: 16 (Photinus pyralis, UniProt P08659, A215L/A482G/A503N/E354I/F295L/H489K/I232A/I351V/I457V/K543Q/R330G/S284T/T214A); assay type: biochemical
T3 construct: N-terminal GPLGS; pGEX-6P-2 GST fusion (tag cleaved), E. coli BL21
T3 sequence (P08659 whole entry T214A/A215L/I232A/S284T/F295L/R330G/I351V/E354I/I457V/A482G/H489K/A503N/K543Q, the tested form may be a part): as the sequence (P08659 whole entry T214A/A215L/I232A/S284T/F295L/E354K, the tested form may be a part) above, with R330G, I351V, K354I, I457V, A482G, H489K, A503N, K543Q counted along it

[15] = biological target: T4, Photinus pyralis luciferase variant Ppy GR-TS (Photinus pyralis, UniProt P08659, A215L/E354K/F250S/F295L/G246A/I232A/T214A/V241I); assay type: biochemical
T4 construct: N-terminal GPLGS; pGEX-6P-2 GST fusion (tag cleaved), E. coli BL21
T4 sequence (P08659 whole entry T214A/A215L/I232A/V241I/G246A/F250S/F295L/E354K, the tested form may be a part): as the sequence (P08659 whole entry T214A/A215L/I232A/S284T/F295L/E354K, the tested form may be a part) above, with V241I, G246A, F250S, T284S counted along it

[16] = biological target: T5, Photinus pyralis luciferase PpyWT variant Ppy19, Ppy14 plus Leu530Ile/Lys534Val/Ile540Lys/Ala542Pro/Lys543Gln (Photinus pyralis, UniProt P08659, A450P/A482G/A503N/A509H/A542P/D475S/D476E/H489K/I457V/I540K/K511R/K534V/K543Q/L472V/L487M/L530I/T507V/T508N/V517R); assay type: biochemical
T5 construct: N-terminal GPLGS; pGEX-6P-2 GST fusion (tag cleaved), E. coli BL21

[17] = biological target: T6, Photinus pyralis luciferase PpyWT variant Ppy5, Ile457Val/Ala482Gly/His489Lys/Ala503Asn/Lys543Gln, SEQ ID NO: 10 (Photinus pyralis, UniProt P08659, A482G/A503N/H489K/I457V/K543Q); assay type: biochemical
T6 construct: pGEX-6P-2 GST fusion (tag cleaved), E. coli BL21
T6 sequence (P08659 whole entry I457V/A482G/H489K/A503N/K543Q, the tested form may be a part): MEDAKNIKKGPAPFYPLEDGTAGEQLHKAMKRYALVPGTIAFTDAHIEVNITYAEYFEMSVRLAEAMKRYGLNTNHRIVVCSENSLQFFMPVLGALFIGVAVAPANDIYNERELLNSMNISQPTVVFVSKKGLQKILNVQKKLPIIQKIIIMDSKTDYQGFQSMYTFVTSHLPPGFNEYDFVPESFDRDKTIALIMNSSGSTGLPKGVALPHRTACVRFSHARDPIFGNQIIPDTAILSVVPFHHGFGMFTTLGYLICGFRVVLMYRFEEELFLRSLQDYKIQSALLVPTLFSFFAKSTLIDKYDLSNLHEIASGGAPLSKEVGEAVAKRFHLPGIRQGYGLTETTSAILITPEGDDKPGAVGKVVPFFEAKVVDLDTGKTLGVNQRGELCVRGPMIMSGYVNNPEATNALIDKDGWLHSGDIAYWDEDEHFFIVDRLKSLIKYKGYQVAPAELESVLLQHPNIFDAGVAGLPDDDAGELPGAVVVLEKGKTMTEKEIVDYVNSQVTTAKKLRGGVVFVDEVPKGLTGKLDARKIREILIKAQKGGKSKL

[18] = biological target: T7, Native Ppy, native firefly luciferase from Photinus pyralis (Photinus pyralis, UniProt P08659); assay type: biochemical
T7 construct: wild type, no tag
T7 sequence (P08659 whole entry): as the sequence (P08659 whole entry I457V/A482G/H489K/A503N/K543Q, the tested form may be a part) above, with V457I, G482A, K489H, N503A, Q543K counted along it

[19] = pH 7.8, LH2 saturating, read-out: Km Mg-ATP
[20] = read-out: Km Mg-ATP, pH 7.8, LH2 saturating

**Q.** Which kcat/Km ([1]; kcat divided by Mg-ATP Km) does the source give for `Nc1ncnc2c1ncn2[C@@H]1O[C@H](COP(=O)(O)OP(=O)(O)OP(=O)(O)O)[C@@H](O)[C@H]1O` [Mg-ATP] here?
**A.** The kcat/Km was 1670 ± 140 M⁻¹ s⁻¹.

**Q.** What about the Km [1, 19] of the same molecule?
**A.** The Km was 60 ± 6 µM.

**Q.** What about the kcat/Km ([2]; kcat divided by Mg-ATP Km) of the same molecule?
**A.** The kcat/Km was 3750 ± 150 M⁻¹ s⁻¹.

**Q.** And the Km [2, 19]?
**A.** Its Km is 80 ± 10 µM.

**Q.** What about the kcat/Km ([3]; kcat divided by Mg-ATP Km) of the same molecule?
**A.** Its kcat/Km is 1860 ± 120 M⁻¹ s⁻¹.

**Q.** And the Km [3, 19]?
**A.** Its Km is 129 ± 14 µM.

**Q.** What about the kcat/Km ([4]; kcat divided by Mg-ATP Km) of the same molecule?
**A.** Its kcat/Km is 1120 ± 150 M⁻¹ s⁻¹.

**Q.** What about the Km [4, 19] of the same molecule?
**A.** Its Km is 89 ± 10 µM.

**Q.** And the kcat/Km ([5]; kcat divided by Mg-ATP Km)?
**A.** Its kcat/Km is 3430 ± 100 M⁻¹ s⁻¹.

**Q.** And the Km [5, 19]?
**A.** The Km was 99 ± 6 µM.

**Q.** And the kcat/Km ([6]; kcat divided by Mg-ATP Km)?
**A.** The kcat/Km was 3290 ± 100 M⁻¹ s⁻¹.

**Q.** What about the Km [6, 19] of the same molecule?
**A.** Its Km is 76 ± 4 µM.

**Q.** What about the kcat/Km ([7]; kcat divided by Mg-ATP Km) of the same molecule?
**A.** The kcat/Km was 1360 ± 140 M⁻¹ s⁻¹.

**Q.** And the Km [7, 19]?
**A.** The Km was 95 ± 9 µM.

**Q.** And the kcat/Km ([8]; kcat divided by Mg-ATP Km)?
**A.** The kcat/Km was 1130 ± 120 M⁻¹ s⁻¹.

**Q.** And the Km [8, 19]?
**A.** Its Km is 79 ± 9 µM.

**Q.** And the “enhanced catalytic efficiency (kcat/Km ATP)” value ([9]; compared to PpyWT)?
**A.** Its value is 2.9 fold.

**Q.** What about the kcat/Km ([9]; kcat divided by Mg-ATP Km) of the same molecule?
**A.** The kcat/Km was 6040 ± 120 M⁻¹ s⁻¹.

**Q.** What about the Km [9, 19] of the same molecule?
**A.** Its Km is 53 ± 5 µM.

**Q.** What about the kcat/Km ([10]; kcat divided by Mg-ATP Km) of the same molecule?
**A.** Its kcat/Km is 3090 ± 90 M⁻¹ s⁻¹.

**Q.** And the Km [10, 19]?
**A.** The Km was 94 ± 8 µM.

**Q.** And the kcat/Km ([11]; kcat divided by Mg-ATP Km)?
**A.** The kcat/Km was 170 ± 70 M⁻¹ s⁻¹.

**Q.** And the Km [11, 19]?
**A.** Its Km is 466 ± 36 µM.

**Q.** What about the kcat/Km ([12]; kcat divided by Mg-ATP Km) of the same molecule?
**A.** Its kcat/Km is 820 ± 90 M⁻¹ s⁻¹.

**Q.** What about the Km [12, 20] of the same molecule?
**A.** Its Km is 68 ± 5 µM.

**Q.** What about the kcat/Km ([13]; kcat divided by Mg-ATP Km) of the same molecule?
**A.** Its kcat/Km is 630 ± 140 M⁻¹ s⁻¹.

**Q.** What about the Km [13, 20] of the same molecule?
**A.** The Km was 79 ± 9 µM.

**Q.** What about the kcat/Km ([14]; kcat divided by Mg-ATP Km) of the same molecule?
**A.** Its kcat/Km is 380 ± 100 M⁻¹ s⁻¹.

**Q.** And the Km [14, 20]?
**A.** Its Km is 289 ± 20 µM.

**Q.** And the kcat/Km ([15]; kcat divided by Mg-ATP Km)?
**A.** The kcat/Km was 500 ± 100 M⁻¹ s⁻¹.

**Q.** And the Km [15, 20]?
**A.** Its Km is 163 ± 16 µM.

**Q.** And the kcat/Km ([16]; kcat divided by Mg-ATP Km)?
**A.** Its kcat/Km is 5990 ± 110 M⁻¹ s⁻¹.

**Q.** And the Km [16, 20]?
**A.** Its Km is 50 ± 5 µM.

**Q.** And the kcat/Km ([17]; kcat divided by Mg-ATP Km)?
**A.** The kcat/Km was 4310 ± 120 M⁻¹ s⁻¹.

**Q.** What about the Km [17, 20] of the same molecule?
**A.** Its Km is 72 ± 7 µM.

**Q.** And the kcat/Km ([18]; kcat divided by Mg-ATP Km)?
**A.** The kcat/Km was 1890 ± 130 M⁻¹ s⁻¹.

**Q.** And the Km [18, 19]?
**A.** The Km was 90 ± 10 µM.
